From patent publication US10723692B2, “Lipids and lipid nanoparticle formulations for delivery of nucleic acids” (Acuitas Therapeutics, Inc., priority 2014, dated 2020)
Like-named read-outs stand apart in the source and are kept apart here.

Tests used:
[1] = system: luciferase expression in the liver; assay: In vivo luciferase mRNA expression rodent model (LNP, liver luciferase); set-up: species or system C57BL/6 mice; conditions: tail vein, liver 4 hours; for Liver Luc @ 0.3 mg/kg (ng luc/g liver): 0.3 mg mRNA/kg; for Liver Luc @ 1.0 mg/kg (ng luc/g liver): 1.0 mg mRNA/kg
Description: Cationic lipid (MC3), DSPC, cholesterol and PEG-lipid were solubilized in ethanol at a molar ratio of 50:10:38.5:1.5. Lipid nanoparticles (LNP) were prepared at a total lipid to mRNA weight ratio of approximately 10:1 to 30:1. Briefly, the mRNA was diluted to 0.2 mg/mL in 10 to 50 mM citrate buffer, pH 4. Syringe pumps were used to mix the ethanolic lipid solution with the mRNA aqueous solution at a ratio of about 1:5 to 1:3 (vol/vol) with total flow rates above 15 ml/min. The ethanol was then removed and the external buffer replaced with PBS by dialysis. Finally, the lipid nanoparticles were filtered through a 0.2 μm pore sterile filter. Lipid nanoparticle particle size was 70-90 nm diameter as determined by quasi-elastic light scattering using a Nicomp 370 submicron particle sizer (Santa Barbara, Calif.).
Studies were performed in 6-8 week old female C57BL/6 mice (Charles River) according to guidelines established by an institutional animal care committee (ACC) and the Canadian Council on Animal Care (CCAC). Varying doses of mRNA-lipid nanoparticle were systemically administered by tail vein injection and animals euthanized at specific time points (1, 2, 4, 8 and 24 hrs) post-administration. Liver and spleen were collected in pre-weighted tubes, weights determined, immediately snap frozen in liquid nitrogen and stored at −80° C. until processing for analysis.
For liver, approximately 50 mg was dissected for analyses in a 2 mL FastPrep tubes (MP Biomedicals, Solon Ohio). ¼″ ceramic sphere (MP Biomedicals) was added to each tube and 500 μL of Glo Lysis Buffer—GLB (Promega, Madison Wis.) equilibrated to room temperature was added to liver tissue. Liver tissues were homogenized with the FastPrep24 instrument (MP Biomedicals) at 2×6.0 m/s for 15 seconds. Homogenate was incubated at room temperature for 5 minutes prior to a 1:4 dilution in GLB and assessed using SteadyGlo Luciferase assay system (Promega). Specifically, 50 μL of diluted tissue homogenate was reacted with 50 μL of SteadyGlo substrate, shaken for 10 seconds followed by 5 minute incubation and then quantitated using a CentroXS^3 LB 960 luminometer (Berthold Technologies, Germany). The amount of protein assayed was determined by using the BCA protein assay kit (Pierce, Rockford Ill.). Relative luminescence units (RLU) were then normalized to total ug protein assayed. To convert RLU to ng luciferase a standard curve was generated with QuantiLum Recombinant Luciferase (Promega). Based in the data provided in FIG. 1, the four-hour time point was chosen for efficacy evaluation of the lipid formulations (see EXAMPLE 48).
The FLuc mRNA (L-6107) from Trilink Biotechnologies will express a luciferase protein, originally isolated from the firefly, Photinus pyralis. FLuc is commonly used in mammalian cell culture to measure both gene expression and cell viability. It emits bioluminescence in the presence of the substrate, luciferin. This capped and polyadenylated mRNA is fully substituted with 5-methylcytidine and pseudouridine.
The cationic lipids shown in Table 2 have previously been tested with nucleic acids. For comparative purposes, these lipids were also used to formulate lipid nanoparticles containing the FLuc mRNA (L-6107) using an in line mixing method, as described in EXAMPLE 47 and in PCT/US10/22614, which is hereby incorporated by reference in its entirety. Lipid nanoparticles were formulated using the following molar ratio: 50% Cationic lipid/10% distearoylphosphatidylcholine (DSPC)/38.5% Cholesterol/1.5% PEG lipid (“PEG-DMG”, i.e., (1-(monomethoxy-polyethyleneglycol)-2,3-dimyristoylglycerol, with an average PEG molecular weight of 2000). Relative activity was determined by measuring luciferase expression in the liver 4 hours following administration via tail vein injection as described in EXAMPLE 47. The activity was compared at a dose of 0.3 and 1.0 mg mRNA/kg and expressed as ng luciferase/g liver measured 4 hours after administration, as described in EXAMPLE 47. […]

[2] = pKa of formulated cationic lipids in lipid nanoparticles (TNS fluorescence assay); assay type: physicochemical; conditions: read-out: pKa
Description: As described elsewhere, the pKa of formulated cationic lipids is correlated with the effectiveness of LNPs for delivery of nucleic acids (see Jayaraman et al, Angewandte Chemie, International Edition (2012), 51(34), 8529-8533; Semple et al, Nature Biotechnology 28, 172-176 (2010)). The preferred range of pKa is ˜5 to ˜7. […] Lipid nanoparticles comprising of cationic lipid/DSPC/cholesterol/PEG-lipid (50/10/38.5/1.5 mol %) in PBS at a concentration of 0.4 mM total lipid are prepared using the in-line process as described in EXAMPLE 47. TNS was prepared as a 100 μM stock solution in distilled water. Vesicles were diluted to 24 μM lipid in 2 mL of buffered solutions containing, 10 mM HEPES, 10 mM MES, 10 mM ammonium acetate, 130 mM NaCl, where the pH ranged from 2.5 to 11. An aliquot of the TNS solution was added to give a final concentration of 1 μM and following vortex mixing fluorescence intensity was measured at room temperature in a SLM Aminco Series 2 Luminescence Spectrophotometer using excitation and emission wavelengths of 321 nm and 445 nm. A sigmoidal best fit analysis was applied to the fluorescence data and the pKa was measured as the pH giving rise to half-maximal fluorescence intensity (see FIG. 2).

[3] = Table 6, LNP with 1.5% PEG-lipid (42-6)
[4] = Table 3, LNP with 1.5% PEG-DMA (42-6), FLuc mRNA
[5] = Table 3, in LNP cationic lipid/DSPC/cholesterol/PEG-lipid 50/10/38.5/1.5 mol %

Compound | Liver Luc @ 0.3 mg/kg (ng luc/g liver) [1, 3] [ng luc/g liver] | Liver Luc @ 1.0 mg/kg (ng luc/g liver) [1, 3] [ng luc/g liver] | pKa ([2]; Table 5, in LNP) | pKa ([2]; Table 6, in LNP) | Liver Luc @ 0.3 mg/kg (ng luc/g liver) [1, 4] [ng luc/g liver] | Liver Luc @ 1.0 mg/kg (ng luc/g liver) [1, 4] [ng luc/g liver] | pKa [2, 5]
CCCCC/C=C\C/C=C\CCCCCCCCN(CCCCCCCC/C=C\C/C=C\CCCCC)CCN(C)C [A, reference compound] | 77 ± 40 | 203 ± 122 | 6.26 | – | – | – | –
CCCCC/C=C\C/C=C\CCCCCCCCN(CCCCCCCC/C=C\C/C=C\CCCCC)CCCN(C)C [B, reference compound] | 3 ± 0.8 | 12 ± 4 | – | 6.68 | – | – | –
CCCCC/C=C\C/C=C\CCCCCCCCN(CCCCCCCC/C=C\C/C=C\CCCCC)CCCCN(C)C [C, reference compound] | 2 ± 0.5 | 7 ± 2 | – | 7.32 | – | – | –
C/C(=C\COC(=O)CCCCCN(CCCCCC(=O)OC/C=C(\C)CCCC(C)CCCC(C)CCCC(C)C)CCN(C)C)CCCC(C)CCCC(C)CCCC(C)C (stereo not drawn) [Compound 2] | – | – | – | – | 23 ± 6 | 84 ± 24 | 5.64
C/C(=C\COC(=O)CN(CCN(C)C)CC(=O)OC/C=C(\C)CCCC(C)CCCC(C)CCCC(C)C)CCCC(C)CCCC(C)CCCC(C)C (stereo not drawn) [Compound 3] | – | – | – | – | 1.5 ± 0.6 | 0.32 ± 0.1 | 7.15
CCCCC(CC)C(=O)OCCCCCCCCCCCCN(CCCCCCCCCCCCOC(=O)C(CC)CCCC)CCN(C)C (stereo not drawn) [Compound 4] | – | – | – | – | 53 ± 10 | 126 ± 102 | 6.43
CCCCCC(CCCC)OC(=O)CCCCCCCCCN(CCCCCCCCCC(=O)OC(CCCC)CCCCC)CCN(C)C (stereo not drawn) [Compound 11] | – | – | – | – | 328 ± 12 | 1266 ± 522 | 6.36
CCCCCCCCOC(=O)CCCCCCCCCN(CCCCCCCCCC(=O)OCCCCCCCC)CCN(C)C [Compound 13] | – | – | – | – | 16 ± 4 | 20 ± 20 | 6.51
CCCCCCCCCCCOC(=O)CCCCCCCCCN(CCCCCCCCCC(=O)OCCCCCCCCCCC)CCN(C)C [Compound 15] | – | – | – | – | 66 ± 32 | 243 ± 71 | 6.3
CCCCCCCCCCCOC(=O)CCCCCCCN(CCCCCCCC(=O)OCCCCCCCCCCC)CCN(C)C [Compound 16] | – | – | – | – | 7 ± 1 | 14 ± 4 | 6.63
CCCCCCCC/C=C/COC(=O)CCCCCCCN(CCCCCCCC(=O)OC/C=C/CCCCCCCC)CCN(C)C [Compound 19] | – | – | – | – | 8 ± 3 | 15 ± 21 | 6.72
